“And” between values parts separate entries of the source, which are not always exact repeats. Identical values can stand only once. Like-named read-outs stand apart in the source and are kept apart here.

Data on seven compounds can be found in patent US9751919B2, “Antimicrobial compositions comprising a hyaluronic acid binding peptide and a β-lactam antibiotic” (priority 2012, dated 2017).

One assay has as its system VISA. The experiment in a line: MIC (CLSI broth dilution), agent alone. The class given is cell-based, Staphylococcus aureus. On the set-up: unit: µg/mL. Here is the method:
VISA (strains 92, 95 and 96), VRSA (strains 105 and 106) and E. coli (strain 69717) isolates were also tested. One MSSA was used as a control. All MICs were assessed using CLSI guidelines. Also assessed was the activity of cefazolin, ceftriazone, meropenem, and a piperacillin/tazobactam combination antibiotic. Minimum inhibitory concentration (MIC) is the lowest concentration of an antimicrobial that will inhibit the visible growth of a microorganism after incubation.
Antimicrobial Susceptibility Testing: A custom designed panel of antimicrobials was created. The panel included: PEP35, penicillin, piperacillin/tazobactam, cefazolin, ceftriaxone, meropenem, clarithromycin, clindamycin, gentamicin, amikacin, vancomycin, ciprofloxacin, levofloxacin, moxifloxacin, linezolid, trimethoprim/sulfamethoxazole and doxycycline. These agents were obtained as laboratory grade powders from their respective manufacturers. Stock solutions were prepared and dilutions made as described by the Clinical Laboratory Standards Institute (2005 CLSI). Following two subcultures from frozen stock the MICs of the antimicrobial agents for the isolates were determined by the CLSI 2005 approved broth macrodilution method. Briefly, test tubes containing doubling antibiotic dilutions (2 ml per tube) of cation adjusted Mueller-Hinton broth (eg. for Enterobacteriaceae) with or without lysed horse blood (2-5% V/V) [eg. for S. pneumoniae] were inoculated to achieve a final concentration of approximately 5×10^5 CFU/ml and incubated in ambient air for 24 hours prior to reading. Colony counts were performed periodically to confirm inocula. Quality control was performed every two weeks using a variety of ATCC QC organisms including; S. aureus 29213, E. faecalis 29212, E. coli 25922 and P. aeruginosa 27853. For all antimicrobials as well as PEP35, CLSI criteria were used.
One MSSA was used as a control. All MICs were assessed using CLSI guidelines.
On the technique in general: Broth dilution looks for growth in wells or tubes with falling amounts of substance.

The next assay has as its system E. coli. The experiment in a line: MIC (CLSI broth dilution), agent alone. It is filed as cell-based, Escherichia coli. The conditions noted are these: for MIC: agent alone. The procedure, abridged: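 E. coli strain 69717 was tested by CLSI 2005 broth macrodilution in cation-adjusted Mueller-Hinton broth with doubling dilutions. The inoculum was about 5×10^5 CFU/ml, incubated 24 h in ambient air. MIC is the lowest concentration preventing visible growth.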

For another assay, the system named is K. pneumoniae. The experiment in a line: Checkerboard assay (FIC index). It is filed as cell-based, Klebsiella pneumoniae. The note with it: antibiotic combined with PEP35. Here is the method: The checkerboard assays were carried out as described by Eliopoulos and Moellering (Chapter 9) in Antibiotic in Laboratory Medicine, Lorian Ed. 1996 as well as Bonapace et al. Diagnostic Microbiology and Infectious Diseases 2002; 44:363-366 and Bonapace et al. Diagnostic Microbiology and Infectious Diseases 2000; 38:43-50. In brief, checkerboard assays were performed in 96 well microtitre trays using an 8-by-8 well configuration. […] 96-well custom designed microtitre plates contained 100 ul/well of cation adjusted Mueller-Hinton broth (eg. for Enterobacteriaceae) with or without lysed horse blood (2-5% V/V) [eg. for S. pneumoniae] and were inoculated to achieve a final concentration of approximately 5×10^5 CFU/ml and incubated in ambient air for 24 hours prior to reading. Colony counts were performed periodically to confirm inocula. Quality control was performed every two weeks using a variety of ATCC QC organisms including; S. pneumoniae 49619, S. aureus 29213, E. faecalis 29212, E. coli 25922 and P. aeruginosa 27853. For all antimicrobials as well as PEP35, CLSI criteria was used.
The fractional inhibitory concentration index (FIC index) was used to interpret synergy, antagonism or additivity/indifference. FIC index=FIC of drug A+FIC of drug B where:
The FIC of drug A and drug B is calculated as follows, FIC drug A=MIC of drug A in combination/MIC of drug A alone and FIC of drug B=MIC of drug B in combination/MIC of drug B alone. Synergy is defined as FIC index ≦0.5, additivity/indifference FIC >0.5-4 and antagonism FIC index >4.
Antimicrobials used included PEP35, cefazolin, ceftriaxone, vancomycin, linezolid, tigecycline and daptomycin versus Gram-positive cocci and PEP35, gentamicin, levofloxacin, piperacillin/tazobactam, meropenem and colistin (Polymyxin E) versus Gram-negative bacilli. These agents were obtained as laboratory grade powders from their respective manufacturers. Stock solutions were prepared and dilutions made as described by the Clinical Laboratory Standards Institute (2005 CLSI).
Organisms included Gram-positive cocci (2 strains of each): Methicillin-susceptible Staphylococcus aureus (MSSA), community-associated (CA) and healthcare-associated (HA) methicillin-resistant Staphylococcus aureus (MRSA), vancomycin-intermediate Staphylococcus aureus (VISA), vancomycin-resistant Staphylococcus aureus (VRSA), methicillin-resistant Staphylococcus epidermidis (MRSE), Streptococcus pyogenes, Streptococcus agalactiae, Streptococcus pneumoniae, Enterococcus faecalis, Enterococcus faecium and vancomycin-resistant enterococcus (VRE). Gram-negative bacilli tested (2 strains of each) included: E. coli, Pseudomonas aeruginosa, Klebsiella pneumoniae, K. oxytoca, Enterobacter cloacae, P. mirabilis and Stenotrophomonas maltophilia. MIC testing, following two subcultures from frozen stock were determined by the CLSI 2005 approved broth microdilution method.

With `Cc1nnc(SCC2=C(C(=O)O)N3C(=O)[C@@H](NC(=O)Cn4cnnn4)[C@H]3SC2)s1` [Cefazolin], the MIC in the assay on VISA (VISA 92) was 128/128; with VISA (VISA 92, in µg/mL), 128; in the assay on VISA (VISA 95, in µg/mL), 128 and 64; in the assay on VISA (VISA 95, listed as CEFAZOLIN, in µg/mL), 128; with VISA (VISA 96), 32/32; with VISA (VISA 96, in µg/mL) it was 64 and 32. Moreover, the MIC came out at 2 with E. coli (E. coli 69716, in µg/mL); 128 in the assay with E. coli (E. coli 70752, in µg/mL); 2 µg/mL in the assay with E. coli (Escherichia coli, E. coli control, read-out: MIC). Also, in the assay on E. coli (E. coli, antibiotic alone, two values in cell), the “Cefazolin (MIC)” value is reported as 2/2.

For the compound `CO/N=C(\C(=O)N[C@@H]1C(=O)N2C(C(=O)O)=C(CSc3nc(=O)c(=O)[nH]n3C)CS[C@H]12)c1csc(N)n1` [Ceftriaxone], the MIC with VISA (VISA 92) was 1024/1024; in the assay on VISA (VISA 92, in µg/mL) it was 1024; with VISA (VISA 95, in µg/mL) it was 512; in the assay with VISA (VISA 95, listed as CEFTRIAXONE, in µg/mL), 1024 and 512; in the assay with VISA (VISA 96) it was 256 and 128/128 and 256/256.

As for `C[C@@H](O)[C@H]1C(=O)N2C(C(=O)O)=C(S[C@@H]3CN[C@H](C(=O)N(C)C)C3)[C@H](C)[C@H]12` [Meropenem], the MIC with VISA (VISA 92, in µg/mL) is 16; with VISA (VISA 95, in µg/mL), 16; with VISA (VISA 96), 8 and 8/8; in the assay with E. coli (E. coli 69716, in µg/mL), 0.03; with E. coli (E. coli 70752, in µg/mL), 0.03. Moreover, the “Avg ΣFIC (range)” value in the assay with K. pneumoniae (K. pneumoniae 70508) was 1.19 (1.03-1.5); in the assay on K. pneumoniae (K. pneumoniae 77081) it was 1.21 (1.03-1.5).

Turning to `CN[C@H](CC(C)C)C(=O)N[C@H]1C(=O)N[C@@H](CC(N)=O)C(=O)N[C@H]2C(=O)N[C@H]3C(=O)N[C@H](C(=O)N[C@H](C(=O)O)c4cc(O)cc(O)c4-c4cc3ccc4O)[C@H](O)c3ccc(c(Cl)c3)Oc3cc2cc(c3O[C@@H]2O[C@H](CO)[C@@H](O)[C@H](O)[C@H]2O[C@H]2C[C@](C)(N)[C@H](O)[C@H](C)O2)Oc2ccc(cc2Cl)[C@H]1O` [Vancomycin], the MIC in the assay with VISA (VISA 92) is 4/4; in the assay on VISA (VISA 95) it was 2 and 4; in the assay on VISA (VISA 96) it was 4/4.

In the case of “KKKKKLQLQLNLIKKKVQVSVVVVRRH (Reordered human peptide sequence) [Scrambled PEP35]”, the MIC turned out to be 2048 with VISA (VISA 92, in µg/mL); 2048 with VISA (VISA 95, in µg/mL); 1024 in the assay with VISA (VISA 96, in µg/mL); 8 in the assay with E. coli (E. coli 69716, in µg/mL); 8 with E. coli (E. coli 70752, in µg/mL). For the same compound, in the assay with E. coli (vs E. coli), the “activity (in words)” value is “active”.

Take “LKQKIKHVVKLKVVVKLRSQLVKRKQN (listed as Mus sp.) [PEP35]”: the MIC in the assay on VISA (VISA 92) is 1024 and 2048/2048/2048; with VISA (VISA 96), 512 and 512/512/512; with E. coli (E. coli 69716, in µg/mL), 128; in the assay with E. coli (E. coli 70752, in µg/mL), 128; in the assay on E. coli (E. coli control), 64 µg/mL. Further, the “PEP35 (MIC)” value in the assay with E. coli (E. coli, peptide alone) was determined as 64 µg/mL.

As for piperacillin/tazobactam, the MIC with VISA (VISA 92, in µg/mL) was 64; in the assay with VISA (VISA 95, in µg/mL), 64; in the assay with VISA (VISA 96, in µg/mL), 64; in the assay on E. coli (E. coli 69716, in µg/mL), 2; in the assay with E. coli (E. coli 69716, listed as Piperacillin-Tazobactam, in µg/mL), 4 and 2; in the assay with E. coli (E. coli 70752), 4/4. The MIC in the assay with E. coli (E. coli 70752, in µg/mL) is on record as 8. For the same compound, the “Avg ΣFIC (range)” value was 0.93 (0.62-1.12) in the assay with K. pneumoniae (K. pneumoniae 70508) and 1.05 (0.75-1.25) in the assay with K. pneumoniae (K. pneumoniae 77081).
